Experimental data reported in US5691311A (Biogen, Inc., priority 1995, dated 1997).
Read-outs that look alike come from different tables or passages of the source. One block for each compound: values may come before it.

Tests used:
hemostasis = test: Template bleeding time; format: in vivo, baboon
APTT = test: Systemic anticoagulant effect (APTT) of antithrombotic agents; format: in vivo, baboon; conditions: dose not given
Text: We also tested the effects of a variety of other agents on template bleeding time in the baboon, as well as on systemic anticoagulant effects (as measured by APTT).

[1] = tested on: platelet-dependent thrombosis; conditions: collagen-coated surfaces, reported values; cited from earlier work
[2] = tested on: human α-thrombin (1.6 nM chromogenic assay; 0.25 μM HPLC assay); test: human α-thrombin in 20 mM Tris-HCl pH 7.4 containing 0.1M NaCl
human α-thrombin [3] = target: T1, human α-thrombin (Homo sapiens, UniProt P00734); test: Thrombin-catalyzed hydrolysis of Spectrozyme TH; format: biochemical; conditions: for Ki: method of Example 9, Spectrozyme TH; for inhibitory activity versus linker length: FIG. 6
T1 construct: proteolysis of the B-chain of α-thrombin; human α-thrombin-catalyzed hydrolysis of Spectrozyme TH
Procedure: The thrombin-catalyzed rate was monitored in a Cary 19 spectrophotometer at 405 nm and recorded continuously as a function of time. Kinetics were performed at room temperature (25°±1°C.) in a 0.05M Tris, pH 7.5, 0.1M NaCl buffer.
For a typical enzyme reaction, 1.0 ml of buffer was added to both the sample and reference cuvettes. […] Immediately following addition of substrate, the contents of the sample cuvette were mixed by use of a plastic pipette. The reaction was monitored spectrophotometrically for 5-15 minutes.
Initial rate velocities at each substrate concentration were expressed as moles Spectrozyme TH hydrolyzed/sec/mole thrombin. This was determined during the initial linear phase of the reaction (≤15% total hydrolysis of substrate) by measuring the slope of the hydrolytic reaction. Lineweaver-Burke plots were constructed accordingly, by plotting the inverse of the initial velocity against the inverse of the substrate concentration.

human α-thrombin [4] = target: T1, human α-thrombin; test: Cleavage of Hirulogs by thrombin (chromogenic and HPLC assays); format: biochemical; conditions: turnover rate of Hirulog hydrolysis by thrombin
Procedure: Aliquots (0.975 ml) of the reaction mixtures were removed at various times and mixed in a cuvette with 0.025 ml Spectrozyme TH (11 μM final concentration), a chromogenic substrate. The initial rate of reaction was determined and, based on control mixtures containing thrombin in the absence of Hirulog, the % inhibition was calculated.
An alternate method employed reverse-phase HPLC separation of aliquots from a Hirulog/thrombin reaction mixture. In this assay we added human α-thrombin (0.25 μM final concentrations) to a reaction vessel containing one of the above Hirulogs (12.5 μM final concentration). Aliquots (50 μl) were removed both prior to and at various times following the addition of thrombin. The aliquots were either flash frozen of injected directly onto the HPLC column. The HPLC system employed an Applied Biosystems Liquid Chromatography System equipped with an Aquapore C, column (0.46×10 cm). The column was equilibrated in 70% solvent A (0.1% TFA in water) and 30% solvent B (0.085% TFA/70% acetonitrile) and developed with a linear gradient of from 30 to 50% solvent B over 30 minutes at a flow rate of 1 ml/minute. The effluent stream was monitored at 214 nm. Peptide concentrations were determined by measurement of peak heights.
Both of the above-described assays allow determination of the rate of Hirulog hydrolysis by thrombin (expressed in M/min) and turnover rate (kcat; expressed in min^-1).

human α-thrombin [5] = test: human α-thrombin in 20 mM Tris-HCl pH 7.4 containing 0.1M NaCl

Bleeding Time (hemostasis; dose not given): 10 min
Compound: N=C(N)c1ccccc1 [Benzamidine, benzamidine]
APTT (% control) (APTT): 757.6 % control
ED50 [1]: 3000 nmol/kg/min

cleaved bond [2]: Arg-Pro, minor
Compound: N-acetyl-Gly-Asp-phe-Leu-Ala-Glu-(Gly)3 -Val-Arg-Pro-(Gly)4 -Asn-Gly-Asp-Phe-Glu-Glu-Ile-Pro-Glu-Glu-Tyr-Leu-OH

Compound: CC[C@H](C)[C@H](NC(=O)[C@H](CCC(=O)O)NC(=O)[C@H](CCC(=O)O)NC(=O)[C@H](Cc1ccccc1)NC(=O)[C@H](CC(=O)O)NC(=O)CNC(=O)[C@H](CC(N)=O)NC(=O)CNC(=O)CNC(=O)CNC(=O)CNC(=O)CNC(=O)[C@H](CCCNC(=N)N)NC(=O)[C@@H]1CCCN1C(=O)[C@H](N)Cc1ccccc1)C(=O)N1CCC[C@H]1C(=O)N[C@@H](CCC(=O)O)C(=O)N[C@@H](CCC(=O)O)C(=O)N[C@@H](Cc1ccc(O)cc1)C(=O)N[C@@H](CC(C)C)C(=O)O [Hirulog-32]
inhibition of thrombin-catalyzed hydrolysis of Spectrozyme TH (in words) (human α-thrombin [3]): poor inhibitors
Ki (human α-thrombin [3]; Ki): > 2000 nM
kcat (human α-thrombin [4]): 535 min⁻¹

Compound: CC[C@H](C)[C@H](NC(=O)[C@H](CCC(=O)O)NC(=O)[C@H](CCC(=O)O)NC(=O)[C@H](Cc1ccccc1)NC(=O)[C@H](CC(=O)O)NC(=O)CNC(=O)[C@H](CC(N)=O)NC(=O)CNC(=O)CNC(=O)CNC(=O)CNC(=O)CNC(=O)CNC(=O)[C@@H]1CCCN1C(=O)[C@H](CCCNC(=N)N)NC(=O)[C@@H]1CCCN1C(=O)[C@H](N)Cc1ccccc1)C(=O)N1CCC[C@H]1C(=O)N[C@@H](CCC(=O)O)C(=O)N[C@@H](CCC(=O)O)C(=O)N[C@@H](Cc1ccc(O)cc1)C(=O)N[C@@H](CC(C)C)C(=O)O [Hirulog-15]
inhibitory activity versus linker length (human α-thrombin [3]): comparable inhibitory activities

Compound: NC(N)=NCCC[C@H](NC(=O)[C@@H]1CCCN1C(=O)[C@H](N)Cc1ccccc1)C(=O)CCl [PPACK, D-Phe-Pro-Arg-CHCl2]
Bleeding Time (hemostasis; dose not given): 12 min
APTT (% control) (APTT): 287.9 % control
ED50 [1]: 75 nmol/kg/min

cleaved bond [2]: Arg-Pro, minor
Compound: H-(D-Phe)-Pro-Arg-Pro-(Gly)4 -Asn-Gly-Asp-Phe-Glu-Glu-Ile-Pro-Glu-Glu-Tyr-Leu-OH

Compound: H-(D-Phe)-Pro-(β-homoarginine)-Val-(Gly)4 -Asn-Gly-Asp-Phe-Glu-Glu-Ile-Pro-Glu-Glu-Tyr-Leu-OH
not cleaved (human α-thrombin [5]): kcat <0.01 min^-1; resistant to thrombin cleavage

Bleeding Time (hemostasis; in vivo): > 30 min
Compound: CC1CNc2c(cccc2S(=O)(=O)N[C@@H](CCCNC(=N)N)C(=O)N2CC[C@@H](C)C[C@@H]2C(=O)O)C1 (stereo partly drawn) [Argipidine (MD805), argatroban (argipidine)]
APTT (% control) (APTT): > 900 % control
ED50 [1]: 550 nmol/kg/min

cleaved bond [2]: Arg-Sar
Compound: H-(D-Phe)-Pro-Arg-Sar-(Gly)5 -Asn-Gly-Asp-Phe-Glu-Glu-Ile-Pro-Glu-Glu-Tyr-Leu-OH

Compound: CC[C@H](C)[C@H](NC(=O)[C@H](CCC(=O)O)NC(=O)[C@H](CCC(=O)O)NC(=O)[C@H](Cc1ccccc1)NC(=O)[C@H](CC(=O)O)NC(=O)CNC(=O)[C@H](CC(N)=O)NC(=O)CNC(=O)CNC(=O)CNC(=O)CNC(=O)CNC[C@H](CCCNC(=N)N)NC(=O)[C@@H]1CCCN1C(=O)[C@H](N)Cc1ccccc1)C(=O)N1CCC[C@H]1C(=O)N[C@@H](CCC(=O)O)C(=O)N[C@@H](CCC(=O)O)C(=O)N[C@@H](Cc1ccc(O)cc1)C(=O)N[C@@H](CC(C)C)C(=O)O [Hirulog-19]
Ki (human α-thrombin [3]; Ki): 20 nM

Compound: CC[C@H](C)[C@H](NC(=O)[C@H](CCC(=O)O)NC(=O)[C@H](CCC(=O)O)NC(=O)[C@H](Cc1ccccc1)NC(=O)[C@H](CC(=O)O)NC(=O)CNC(=O)[C@H](CC(N)=O)NC(=O)CNC(=O)CNC(=O)CNC(=O)CNC(=O)[C@@H]1CCCN1C(=O)C[C@H](CCCNC(=N)N)NC(=O)[C@@H]1CCCN1C(=O)[C@H](N)Cc1ccccc1)C(=O)N1CCC[C@H]1C(=O)N[C@@H](CCC(=O)O)C(=O)N[C@@H](CCC(=O)O)C(=O)N[C@@H](Cc1ccc(O)cc1)C(=O)N[C@@H](CC(C)C)C(=O)O [Hirulog-18b]
Ki (human α-thrombin [3]; Ki): 4.6 nM

Compound: CC[C@H](C)[C@H](NC(=O)[C@H](CCC(=O)O)NC(=O)[C@H](CCC(=O)O)NC(=O)[C@H](Cc1ccccc1)NC(=O)[C@H](CC(=O)O)NC(=O)CNC(=O)[C@H](CC(N)=O)NC(=O)CNC(=O)CNC(=O)CNC(=O)CNC(=O)CNC(=O)C[C@H](CCCNC(=N)N)NC(=O)[C@@H]1CCCN1C(=O)[C@H](N)Cc1ccccc1)C(=O)N1CCC[C@H]1C(=O)N[C@@H](CCC(=O)O)C(=O)N[C@@H](CCC(=O)O)C(=O)N[C@@H](Cc1ccc(O)cc1)C(=O)N[C@@H](CC(C)C)C(=O)O [Hirulog-18a]
Ki (human α-thrombin [3]; Ki): 7.4 nM

Compound: H-(D-Phe)-Pro-(β-homoarginine)-Pro-(Gly)4 -Asn-Gly-Asp-Phe-Glu-Glu-Ile-Pro-Glu-Glu-Tyr-Leu-OH
not cleaved (human α-thrombin [5]): kcat <0.01 min^-1; resistant to thrombin cleavage

Compound: CC[C@H](C)[C@H](NC(=O)[C@H](CCC(=O)O)NC(=O)[C@H](CCC(=O)O)NC(=O)[C@H](Cc1ccccc1)NC(=O)[C@H](CC(=O)O)NC(=O)CNC(=O)[C@H](CC(N)=O)NC(=O)CNC(=O)CNC(=O)CNC(=O)CNC(=O)CNC(=O)CN(C)C(=O)[C@H](CCCNC(=N)N)NC(=O)[C@@H]1CCCN1C(=O)[C@H](N)Cc1ccccc1)C(=O)N1CCC[C@H]1C(=O)N[C@@H](CCC(=O)O)C(=O)N[C@@H](CCC(=O)O)C(=O)N[C@@H](Cc1ccc(O)cc1)C(=O)N[C@@H](CC(C)C)C(=O)O [Hirulog-10]
inhibition of thrombin-catalyzed hydrolysis of Spectrozyme TH (in words) (human α-thrombin [3]): poor inhibitors
Ki (human α-thrombin [3]; Ki): > 2000 nM
kcat (human α-thrombin [4]): 10 min⁻¹

Compound: CC[C@H](C)[C@H](NC(=O)[C@H](CCC(=O)O)NC(=O)[C@H](CCC(=O)O)NC(=O)[C@H](Cc1ccccc1)NC(=O)[C@H](CC(=O)O)NC(=O)CNC(=O)[C@H](CC(N)=O)NC(=O)CNC(=O)CNC(=O)[C@@H]1CCCN1C(=O)[C@H](CCCNC(=N)N)NC(=O)[C@@H]1CCCN1C(=O)[C@H](N)Cc1ccccc1)C(=O)N1CCC[C@H]1C(=O)N[C@@H](CCC(=O)O)C(=O)N[C@@H](CCC(=O)O)C(=O)N[C@@H](Cc1ccc(O)cc1)C(=O)N[C@@H](CC(C)C)C(=O)O [Hirulog-13]
reduction of activity (human α-thrombin [3]; 18 Å linker length, versus Hirulogs-8, -15, -16): more than 10 fold

Ki (human α-thrombin [3]; read-out: Ki): 3.6 nM
kcat (human α-thrombin [4]): 0.056 min⁻¹
Compound: N-acetyl-Gly-Asp-phe-Leu-Ala-Glu-(Gly)3 -Val-Arg-Pro-(Gly)4 -Asn-Gly-Asp-Phe-Glu-Glu-Ile-Pro-Glu-Glu-Tyr-Leu-OH [Hirulog-33]

cleaved bond [2]: Arg-Gly
Compound: H-(D-Phe)-Pro-Arg-(Gly)5 -Asn-Gly-Asp-Phe-Glu-Glu-Ile-Pro-Glu-Glu-Tyr-Leu-OH

Compound: CC[C@H](C)[C@H](NC(=O)[C@H](CCC(=O)O)NC(=O)[C@H](CCC(=O)O)NC(=O)[C@H](Cc1ccccc1)NC(=O)[C@H](CC(=O)O)NC(=O)CNC(=O)[C@H](CC(N)=O)NC(=O)CNC(=O)CNC(=O)CNC(=O)CNC(=O)CNC(=O)CNC(=O)CNC(=O)CNC(=O)[C@@H]1CCCN1C(=O)[C@H](CCCNC(=N)N)NC(=O)[C@@H]1CCCN1C(=O)[C@H](N)Cc1ccccc1)C(=O)N1CCC[C@H]1C(=O)N[C@@H](CCC(=O)O)C(=O)N[C@@H](CCC(=O)O)C(=O)N[C@@H](Cc1ccc(O)cc1)C(=O)N[C@@H](CC(C)C)C(=O)O [Hirulog-16]
inhibitory activity versus linker length (human α-thrombin [3]): comparable inhibitory activities

Compound: CC[C@H](C)[C@H](NC(=O)[C@H](CCC(=O)O)NC(=O)[C@H](CCC(=O)O)NC(=O)[C@H](Cc1ccccc1)NC(=O)[C@H](CC(=O)O)NC(=O)CNC(=O)[C@H](CC(N)=O)NC(=O)CNC(=O)CNC(=O)CNC(=O)CNC(=O)[C@@H](NC(=O)C[C@H](CCCNC(=N)N)NC(=O)[C@@H]1CCCN1C(=O)[C@H](N)Cc1ccccc1)C(C)C)C(=O)N1CCC[C@H]1C(=O)N[C@@H](CCC(=O)O)C(=O)N[C@@H](CCC(=O)O)C(=O)N[C@@H](Cc1ccc(O)cc1)C(=O)N[C@@H](CC(C)C)C(=O)O [Hirulog-18c]
Ki (human α-thrombin [3]; Ki): 205 nM
